28 compounds from patent publication US20230017532A1 (Hoffmann-La Roche Inc., priority 2018, published 2023) can be followed below.

Counter-ions that a name gives are not always drawn.

For one assay, the system named is Acinetobacter baumannii ATCC17961. As to the kind of experiment: Antimicrobial susceptibility testing: 90% growth inhibitory concentration (IC90) determination, Iso-Sensitest broth, OD 600 nm. In kind it is cell-based. Particulars: 90% growth inhibitory concentration, Acinetobacter baumannii ATCC17961, Iso-Sensitest broth, OD 600 nm over 16 h; read-out: ATCC 17961 IC90. Put shortly: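 Twofold serial dilutions (e.g. 50–0.097 μM final) incubated with ~5×10^5 CFU/ml in Iso-Sensitest broth at 35±2 °C. OD600 read every 20 min for 16 h; IC90 derived from growth inhibition during logarithmic phase.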
In the case of `COc1ccc(-c2cnc3c(Nc4ccc(C(=O)NCCCNCCO)c(Cl)c4)nccn23)c(F)c1F` [Example 221, 2-chloro-4-((3-(2,3-difluoro-4-methoxyphenyl)imidazo[1,2-a]pyrazin-8-yl)amino)-N-(3-((2-hydroxyethyl)amino)propyl) benzamide 2-chloro-4-((3-(2,3-difluoro-4-methoxyphenyl)imidazo[1,2-a]pyrazin-8-yl)amino)-N-(3-((2-hydroxyethyl)amino)propyl)benzamide], the IC90 is 0.08 µM.
Still for that read-out and setting: with `C#CCOc1ccc(-c2cnc3c(Nc4ccc(C(=O)N[C@@H](C)CNCC(N)=O)c(CC)c4)nccn23)c(F)c1F` [Example 207, N-[(1S)-2-[(2-amino-2-oxo-ethyl)amino]-1-methyl-ethyl]-4-[[3-(2,3-difluoro-4-prop-2-ynoxy-phenyl)imidazo [1,2-a]pyrazin-8-yl]amino]-2-ethyl-benzamide] the figure was 0.35 µM.
`CCc1cc(Nc2nccn3c(-c4ccc(OC)cc4CC)cnc23)ccc1C(=O)NCCOCCN` [Example 206, N-(2-(2-amino-ethoxy)ethyl)-2-ethyl-4-((3-(2-ethyl-4-methoxyphenyl)imidazo[1,2-a]pyrazin-8-yl)amino)benzamide hydrochloride]: the concentration for an effect of 90% (IC90) was 0.26 µM.
Turning to `CCc1cc(Nc2nccn3c(-c4cc(Cl)c(OC)cc4F)cnc23)ccc1C(=O)NCCOCCN` [Example 220, N-[2-(2-amino-ethoxy)ethyl]-4-[[3-(5-chloro-2-fluoro-4-methoxy-phenyl)imidazo[1,2-a]pyrazin-8-yl]amino]-2-ethyl-benzamide], the IC90 came to 0.08 µM.
Turning to `COc1ccc(-c2cnc3c(Nc4cc(C)c(C(=O)NCCOCCOCCN)c(F)c4)nccn23)c(F)c1F` [Example 208, N-(2-(2-(2-aminoethoxy)ethoxy)ethyl)-4-((3-(2,3-difluoro-4-methoxyphenyl)imidazo[1,2-a]pyrazin-8-yl)amino)-2-fluoro-6-methyl-benzamide dihydrochloride], the IC90 is 0.23 µM.
As for `CCc1cc(Nc2nccn3c(-c4cc(F)c(OC)cc4F)cnc23)ccc1C(=O)NCCOCCN` [Example 222, N-[2-(2-amino-ethoxy)ethyl]-4-[[3-(2,5-difluoro-4-methoxy-phenyl)imidazo[1,2-a]pyrazin-8-yl]amino]-2-ethyl-benzamide], the IC90 came out at 0.04 µM.
On the same count and under the same terms, with `CCc1cc(Nc2nccn3c(-c4cc(F)ccc4F)cnc23)ccc1C(=O)NCCOCCN` [Example 210, N-[2-(2-amino-ethoxy)ethyl]-4-[[3-(2,5-difluorophenyl)imidazo[1,2-a]pyrazin-8-yl]amino]-2-ethyl-benzamide] the figure was 0.55 µM; with `CCc1cc(Nc2nccn3c(-c4ccc(O)cc4C(F)(F)F)cnc23)ccc1C(=O)NCCOCCN` [Example 182, N-[2-(2-aminoethoxy)ethyl]-2-ethyl-4-[[3-[4-hydroxy-2-(trifluoromethyl)phenyl]imidazo [1,2-a]pyrazin-8-yl]amino] benzamide; hydrochloride], 0.22 µM; with `CCc1cc(Nc2nccn3c(-c4cccc(F)c4C(F)(F)F)cnc23)ccc1C(=O)NCCOCCN` [Example 179, N-[2-(2-aminoethoxy)ethyl]-2-ethyl-4-[[3-[3-fluoro-2-(trifluoromethyl)phenyl]imidazo [1,2-a]pyrazin-8-yl]amino] benzamide], 0.3 µM.
On the same count and under the same terms, with `CCc1cc(Nc2nccn3c(-c4ccc(Oc5ccccn5)c(F)c4F)cnc23)ccc1C(=O)NCCOCC(=O)N1CCN[C@H](CO)C1` [Example 204, 4-[[3-[2,3-difluoro-4-(2-pyridyloxy)phenyl]imidazo [1,2-a]pyrazin-8-yl]amino]-2-ethyl-N-[2-[2-[(3S)-3-(hydroxymethyl)piperazin-1-yl]-2-oxo-ethoxy]ethyl]benzamide] the figure was 0.53 µM; with `CCc1cc(Nc2nccn3c(-c4ccc(OC)c(F)c4F)cnc23)ccc1C(=O)N[C@H](C)CNCCCCNCCCN` [Example 228, (R)-N-(1-((4-((3-aminopropyl)amino)butyl)amino)propan-2-yl)-4-((3-(2,3-difluoro-4-methoxyphenyl)imidazo[1,2-a]pyrazin-8-yl)amino)-2-ethylbenzamide trihydrochloride], 0.51 µM.
Turning to `CCc1cc(Nc2nccn3c(-c4ccc(Oc5ccccn5)c(F)c4F)cnc23)ccc1C(=O)NCCNCC(=O)N1CCN[C@H](CO)C1` [Example 205, 4-[[3-[2,3-difluoro-4-(2-pyridyloxy)phenyl]imidazo [1,2-a]pyrazin-8-yl]amino]-2-ethyl-N-[2-[[2-[(3S)-3-(hydroxymethyl)piperazin-1-yl]-2-oxo-ethyl]amino]ethyl]benzamide], the IC90 is 0.59 µM.
For `CCc1cc(Nc2nccn3c(-c4ccc(OC)c(F)c4F)cnc23)ccc1C(=O)N[C@@H](C)CNCCO` [Example 218, 4-[[3-(2,3-difluoro-4-methoxy-phenyl)imidazo [1,2-a]pyrazin-8-yl]amino]-2-ethyl-N-[(1S)-2-(2-hydroxyethyl-amino)-1-methyl-ethyl]benzamide], the IC90 turned out to be 0.54 µM.
On to `C#CCNCCCNC(=O)c1ccc(Nc2nccn3c(-c4ccc(OC)c(F)c4F)cnc23)cc1CC` [Example 225, 4-((3-(2,3-difluoro-4-methoxyphenyl)imidazo[1,2-a]pyrazin-8-yl)amino)-2-ethyl-N-(3-(prop-2-yn-1-ylamino)propyl) benzamide], for which the IC90 was found to be 0.05 µM.
As for `CCc1cc(Nc2nccn3c(-c4c(F)cccc4F)cnc23)ccc1C(=O)NCCOCCN` [Example 214, N-[2-(2-amino-ethoxy)ethyl]-4-[[3-(2,6-difluorophenyl)imidazo[1,2-a]pyrazin-8-yl]amino]-2-ethyl-benzamide], the IC90 was determined as 0.95 µM.
The same measure, in the same setting: with `CCc1cc(Nc2nccn3c(-c4ccc(OC)c(F)c4F)cnc23)ccc1C(=O)N[C@@H](C)CNCCN` [Example 219, N-[(1S)-2-(2-aminoethyl-amino)-1-methyl-ethyl]-4-[[3-(2,3-difluoro-4-methoxy-phenyl)imidazo[1,2-a]pyrazin-8-yl]amino]-2-ethyl-benzamide; formic acid] the figure was 0.58 µM; with `CCc1cc(Nc2nccn3c(-c4ccc(OC)c(F)c4F)cnc23)ccc1C(=O)NCCOCC(=O)N1CCN[C@H](CO)C1` [Example 203, 4-[[3-(2,3-difluoro-4-methoxy-phenyl)imidazo [1,2-a]pyrazin-8-yl]amino]-2-ethyl-N-[2-[2-[(3S)-3-(hydroxymethyl)piperazin-1-yl]-2-oxo-ethoxy]ethyl]benzamide], 0.43 µM.
Regarding `C#CCOc1ccc(-c2cnc3c(Nc4ccc(C(=O)N[C@@H](C)CNCCN)c(CC)c4)nccn23)c(F)c1F` [Example 200], the concentration for an effect of 90% (IC90) was 0.63 µM.
Turning to `COc1ccc(-c2cnc3c(Nc4cc(C)c(C(=O)NCCOCCN=C(N(C)C)N(C)C)c(F)c4)nccn23)c(F)c1F` [Example 212, N-(2-(2-((bis(dimethyl-amino)methylene)amino)ethoxy)ethyl)-4-((3-(2,3-difluoro-4-methoxyphenyl)imidazo[1,2-a]pyrazin-8-yl)amino)-2-fluoro-6-methylbenzamide formate], the concentration for an effect of 90% (IC90) was determined as 0.4 µM.
For `CCc1cc(Nc2nccn3c(-c4ccc(OC)cc4S(=O)(=O)NC)cnc23)ccc1C(=O)NCCOCCN` [Example 55, N-[2-(2-aminoethoxy)ethyl]-2-ethyl-4-[[3-[4-methoxy-2-(methylsulfamoyl)phenyl]imidazo[1,2-a]pyrazin-8-yl]amino]benzamide; formic acid], the IC90 amounted to 2.79 µM.
On to `COc1ccc(-c2cnc3c(Nc4ccc(C(=O)NCCOCCN)c(F)c4F)nccn23)c(F)c1F` [Example 63, N-(2-(2-aminoethoxy)ethyl)-4-((3-(2,3-difluoro-4-methoxy-phenyl)imidazo [1,2-a]pyrazin-8-yl)amino)-2,3-difluoro-benzamide], for which the concentration for an effect of 90% (IC90) is 0.88 µM.
Turning to `CCc1cc(Nc2nccn3c(-c4ccc(OC)c(F)c4F)cnc23)ccc1C(=O)NCCCCCN(C)C` [Example 223, 4-((3-(2,3-difluoro-4-methoxyphenyl)imidazo[1,2-a]pyrazin-8-yl)amino)-N-(5-(dimethylamino)pentyl)-2-ethylbenzamide], the IC90 amounted to 0.03 µM.
On to `COc1ccc(-c2cnc3c(Nc4cc(C)c(C(=O)NCCOCCN)c(Cl)c4)nccn23)c(F)c1F` [Example 62, N-(2-(2-aminoethoxy)ethyl)-2-chloro-4-((3-(2,3-difluoro-4-methoxyphenyl)imidazo[1,2-a]pyrazin-8-yl)amino)-6-methyl-benzamide], for which the IC90 was determined as 1.87 µM.
In the case of `COc1ccc(-c2cnc3c(Nc4cc(F)c(C(=O)NCCOCCN)c(Br)c4)nccn23)c(F)c1F` [Example 217, N-(2-(2-amino-ethoxy)ethyl)-2-bromo-4-((3-(2,3-difluoro-4-methoxyphenyl)imidazo[1,2-a]pyrazin-8-yl)amino)-6-fluorobenzamide dihydrochloride], the concentration for an effect of 90% (IC90) amounted to 0.1 µM.
Same read-out and setting: with `COc1ccc(-c2cnc3c(Nc4ccc(C(=O)NCCOCCN)c(F)c4)nccn23)c(F)c1F` [Example 199, N-(2-(2-amino-ethoxy)ethyl)-4-((3-(2,3-difluoro-4-methoxyphenyl)imidazo[1,2-a]pyrazin-8-yl)amino)-2-fluorobenzamide] the figure was 0.38 µM; with `CCc1cc(Nc2nccn3c(-c4cc(F)cc(OC)c4)cnc23)ccc1C(=O)NCCOCCN` [Example 211, N-[2-(2-amino-ethoxy)ethyl]-2-ethyl-4-[[3-(3-fluoro-5-methoxy-phenyl)imidazo [1,2-a]pyrazin-8-yl]amino] benzamide], 0.94 µM.

Still in this assay, the particulars now being: Acinetobacter baumannii, ATCC17961, 16 h, read-out: ATCC 17961 IC90.
In the case of `CCc1cc(Nc2nccn3c(-c4ccc(OC)c(F)c4F)cnc23)ccc1C(=O)NCCOCC(C)(C)N` [Example 72, N-[2-(2-amino-2-methyl-propoxy)ethyl]-4-[[3-(2,3-difluoro-4-methoxy-phenyl)imidazo[1,2-a]pyrazin-8-yl]amino]-2-ethyl-benzamide; formic acid], the 90% effect concentration (IC90) is 0.04 µM.
On to `COc1ccc(-c2cnc3c(Nc4ccc(C(=O)NCCOCCN)c(C)c4F)nccn23)c(F)c1F` [Example 61, dihydrochloride], for which the 90% effect concentration (IC90) was found to be 0.14 µM.

The term IC90 denotes the point of the concentration-response curve where the effect stands at 90%.
